Read-outs that look alike come from different tables or passages of the source.
Experiments:
[1] = test system: human peripheral blood pan T cells; assay: IFNγ and IL-2 analysis of human peripheral pan T cells; format: cell-based; settings: T-cell, CD3/CD28 bead stimulation, 100 nM Prostaglandin E2, 24 hr
Description: IFNγ and IL-2 Analysis of Human Peripheral Pan T Cells
Human peripheral blood pan T cells were purchased from STEMCELL™ Technologies Inc. Human peripheral blood pan T cells were thawed and suspended in DMEM media (10% FBS and 10 Penicillin/Streptomycin). 8×10^4 T cells were seeded in 96-well plate and incubated with various concentration of compounds and 100 nM Prostaglandin E2 for 1 hr. T cells were stimulated with Dynabeads Human T-Activator CD3/CD28 (Life Technologies) at a 1:3 cells: beads ratio. […] Data were analyzed with an MESO Quickplex SQ120 (Mesoscale Discovery).
In Table 3, the values represent + for >1000 nM, ++ 200-1,000 nM, +++ for <200 nM and − for not determined.

recombinant human HPK1 = recombinant human HPK1 (Homo sapiens (Human), UniProt Q92918); assay: HPK1 kinase assay (ADP-Glo); format: biochemical; settings: 25 μM ATP, MBP substrate
Sequence of recombinant human HPK1 (Q92918 whole entry): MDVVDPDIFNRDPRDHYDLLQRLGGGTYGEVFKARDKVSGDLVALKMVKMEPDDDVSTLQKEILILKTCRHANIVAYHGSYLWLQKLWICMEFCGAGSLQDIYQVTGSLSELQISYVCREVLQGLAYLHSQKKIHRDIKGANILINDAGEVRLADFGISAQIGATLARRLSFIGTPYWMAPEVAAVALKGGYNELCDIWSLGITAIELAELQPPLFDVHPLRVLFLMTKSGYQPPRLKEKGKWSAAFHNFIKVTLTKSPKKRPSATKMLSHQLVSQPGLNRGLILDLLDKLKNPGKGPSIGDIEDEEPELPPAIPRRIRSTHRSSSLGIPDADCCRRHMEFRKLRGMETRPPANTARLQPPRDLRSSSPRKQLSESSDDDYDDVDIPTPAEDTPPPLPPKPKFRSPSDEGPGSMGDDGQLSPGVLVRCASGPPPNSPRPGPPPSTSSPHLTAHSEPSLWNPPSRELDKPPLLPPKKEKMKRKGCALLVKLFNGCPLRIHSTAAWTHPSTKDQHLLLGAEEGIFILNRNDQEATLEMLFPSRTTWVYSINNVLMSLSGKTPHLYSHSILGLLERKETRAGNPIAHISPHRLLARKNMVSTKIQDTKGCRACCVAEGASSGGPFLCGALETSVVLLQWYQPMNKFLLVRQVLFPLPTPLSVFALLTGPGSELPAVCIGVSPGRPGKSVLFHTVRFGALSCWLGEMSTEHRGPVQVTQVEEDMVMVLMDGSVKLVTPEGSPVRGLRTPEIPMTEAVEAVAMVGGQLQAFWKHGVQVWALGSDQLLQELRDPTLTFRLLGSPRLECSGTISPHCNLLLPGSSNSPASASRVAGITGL
Outline: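 Activity was read as ADP formed, detected by ADP-Glo luminescence after the reaction of 5 ng recombinant human HPK1 with MBP and ATP (stocks 0.5 μg/μl and 25 μM) for 40 min at 30 °C. Buffer was Tris pH 7.5 with MgCl2, BSA and DTT, with compound in 0.5% DMSO. IC50 came from inhibition curves.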

[2] = IFNγ secretion, read-out: IFNγ (EC50)
[3] = IL-2 secretion, read-out: IL-2 (EC50)

EC50 [1, 2] [µM]	EC50 [1, 3] [µM]	IC50 (recombinant human HPK1) [µM]	Compound
0.2 to 1	–	–	CSc1c(F)c(SC)c2[nH]ncc2c1-c1ccc2nc(NC(=O)[C@@H]3C[C@@H]3F)sc2c1 [Example 111, (1S,2S)-2-fluoro-N-(6-(6-fluoro-5,7-bis(methylthio)-1H-indazol-4-yl)benzo[d]thiazol-2-yl)cyclopropane-1-carboxamide]
0.2 to 1	–	–	CSc1c(F)c(C)c(-c2ccc3nc(NC(=O)[C@@H]4C[C@@H]4F)sc3n2)c2cn[nH]c12 [Example 173, (1S,2S)-2-fluoro-N-(5-(6-fluoro-5-methyl-7-(methylthio)-1H-indazol-4-yl)thiazolo[5,4-b]pyridin-2-yl)cyclopropane-1-carboxamide]
0.2 to 1	–	–	CCN(C)c1c(F)c(Cl)c(-c2ccc3nc(NC(=O)[C@@H]4C[C@@H]4F)sc3n2)c2cn[nH]c12 [Example 196, (1S,2S)-N-(5-(5-chloro-7-(ethyl(methyl)amino)-6-fluoro-1H-indazol-4-yl)thiazolo[5,4-b]pyridin-2-yl)-2-fluorocyclopropane-1-carboxamide]
0.2 to 1	0.2 to 1	–	CCN(C)c1c(F)c(C)c(-c2ccc3nc(NC(=O)[C@@H]4C[C@@H]4F)cn3c2)c2cn[nH]c12 [Example 330, (1S,2S)-N-(6-(7-(ethyl(methyl)amino)-6-fluoro-5-methyl-1H-indazol-4-yl)imidazo[1,2-a]pyridin-2-yl)-2-fluorocyclopropane-1-carboxamide]
0.2 to 1	0.2 to 1	–	CC(=O)N(C)c1c(F)c(C)c(-c2ccn3nc(NC(=O)[C@@H]4C[C@@H]4F)cc3c2)c2cn[nH]c12 [Example 550, (1S,2S)-2-fluoro-N-(5-(6-fluoro-5-methyl-7-(N-methylacetamido)-1H-indazol-4-yl)pyrazolo[1,5-a]pyridin-2-yl)cyclopropane-1-carboxamide]
0.2 to 1	–	–	CSc1c(F)c(C)c(-c2ccn3nc(NC(=O)C4CC4)cc3c2)c2cn[nH]c12 [Example 562, N-(5-(6-fluoro-5-methyl-7-(methylthio)-1H-indazol-4-yl)pyrazolo[1,5-a]pyridin-2-yl)cyclopropanecarboxamide]
–	–	< 0.1	CC(Nc1c(F)c(Cl)c(-c2ccn3nc(NC(=O)[C@@H]4C[C@@H]4F)cc3c2)c2cn[nH]c12)C1CC1 (stereo partly drawn) [Example 653, (1S,2S)-N-(5-(5-chloro-7-((1-cyclopropylethyl)amino)-6-fluoro-1H-indazol-4-yl)pyrazolo[1,5-a]pyridin-2-yl)-2-fluorocyclopropane-1-carboxamide]
–	–	< 0.1	O=C(Nc1cc2cc(-c3c(Cl)c(F)c(NCC4CC4)c4[nH]ncc34)ccn2n1)[C@@H]1C[C@@H]1F [Example 654, (1S,2S)-N-(5-(5-chloro-7-((cyclopropylmethyl)amino)-6-fluoro-1H-indazol-4-yl)pyrazolo[1,5-a]pyridin-2-yl)-2-fluorocyclopropane-1-carboxamide]
–	–	< 0.1	COC[C@H](C)c1c(F)c(Cl)c(-c2ccn3nc(NC(=O)[C@@H]4C[C@@H]4F)cc3c2)c2cn[nH]c12 [Example 655, (1S,2S)-N-(5-(5-chloro-6-fluoro-7-((R)-1-methoxypropan-2-yl)-1H-indazol-4-yl)pyrazolo[1,5-a]pyridin-2-yl)-2-fluorocyclopropane-1-carboxamide]
–	–	< 0.1	COC[C@@H](C)c1c(F)c(Cl)c(-c2ccn3nc(NC(=O)[C@@H]4C[C@@H]4F)cc3c2)c2cn[nH]c12 [Example 656, (1S,2S)-N-(5-(5-chloro-6-fluoro-7-((S)-1-methoxypropan-2-yl)-1H-indazol-4-yl)pyrazolo[1,5-a]pyridin-2-yl)-2-fluorocyclopropane-1-carboxamide]
–	–	< 0.1	CC(Nc1c(F)c(Cl)c(-c2ccn3nc(NC(=O)[C@@H]4C[C@@H]4F)cc3c2)c2cn[nH]c12)C(F)F (stereo partly drawn) [Example 657, (1S,2S)-N-(5-(5-chloro-7-((1,1-difluoropropan-2-yl)amino)-6-fluoro-1H-indazol-4-yl)pyrazolo[1,5-a]pyridin-2-yl)-2-fluorocyclopropane-1-carboxamide]
–	–	< 0.1	O=C(Nc1cc2cc(-c3c(Cl)c(F)c(C4CC(O)CO4)c4[nH]ncc34)ccn2n1)[C@@H]1C[C@@H]1F (stereo partly drawn) [Example 658, (1S,2S)-N-(5-(5-chloro-6-fluoro-7-(4-hydroxytetrahydrofuran-2-yl)-1H-indazol-4-yl)pyrazolo[1,5-a]pyridin-2-yl)-2-fluorocyclopropane-1-carboxamide]
–	–	< 0.1	CC(NC=O)c1c(F)c(Cl)c(-c2ccn3nc(NC(=O)[C@@H]4C[C@@H]4F)cc3c2)c2cn[nH]c12 (stereo partly drawn) [Example 659, (1S,2S)-N-(5-(5-chloro-6-fluoro-7-(1-formamidoethyl)-1H-indazol-4-yl)pyrazolo[1,5-a]pyridin-2-yl)-2-fluorocyclopropane-1-carboxamide]
–	–	< 0.1	CCC(=O)NC(C)c1c(F)c(Cl)c(-c2ccn3nc(NC(=O)[C@@H]4C[C@@H]4F)cc3c2)c2cn[nH]c12 (stereo partly drawn) [Example 660, (1S,2S)-N-(5-(5-chloro-6-fluoro-7-(1-propionamidoethyl)-1H-indazol-4-yl)pyrazolo[1,5-a]pyridin-2-yl)-2-fluorocyclopropane-1-carboxamide]
–	–	< 0.1	CC(NC(=O)C1CCC1)c1c(F)c(Cl)c(-c2ccn3nc(NC(=O)[C@@H]4C[C@@H]4F)cc3c2)c2cn[nH]c12 (stereo partly drawn) [Example 661, N-(1-(5-chloro-6-fluoro-4-(2-((1S,2S)-2-fluorocyclopropane-1-carboxamido)pyrazolo[1,5-a]pyridin-5-yl)-1H-indazol-7-yl)ethyl)cyclobutanecarboxamide]
–	–	< 0.1	CC(NC(=O)C(F)(F)F)c1c(F)c(Cl)c(-c2ccn3nc(NC(=O)[C@@H]4C[C@@H]4F)cc3c2)c2cn[nH]c12 (stereo partly drawn) [Example 662, (1S,2S)-N-(5-(5-chloro-6-fluoro-7-(1-(2,2,2-trifluoroacetamido)ethyl)-1H-indazol-4-yl)pyrazolo[1,5-a]pyridin-2-yl)-2-fluorocyclopropane-1-carboxamide]
–	–	< 0.1	CC(=O)NC(C)c1c(F)c(Cl)c(-c2ccn3nc(NC(=O)[C@@H]4C[C@@H]4F)cc3c2)c2cn[nH]c12 (stereo partly drawn) [Example 663, (1S,2S)-N-(5-(7-(1-acetamidoethyl)-5-chloro-6-fluoro-1H-indazol-4-yl)pyrazolo[1,5-a]pyridin-2-yl)-2-fluorocyclopropane-1-carboxamide]
–	–	< 0.1	CNC(=O)N(C)c1c(F)c(Cl)c(-c2ccn3nc(NC(=O)[C@@H]4C[C@@H]4F)cc3c2)c2cn[nH]c12 [Example 664, (1S,2S)-N-(5-(5-chloro-7-(1,3-dimethylureido)-6-fluoro-1H-indazol-4-yl)pyrazolo[1,5-a]pyridin-2-yl)-2-fluorocyclopropane-1-carboxamide]
–	–	< 0.1	CC(NC(=O)C(F)F)c1c(F)c(Cl)c(-c2ccn3nc(NC(=O)[C@@H]4C[C@@H]4F)cc3c2)c2cn[nH]c12 (stereo partly drawn) [Example 665, (1S,2S)-N-(5-(5-chloro-7-(1-(2,2-difluoroacetamido)ethyl)-6-fluoro-1H-indazol-4-yl)pyrazolo[1,5-a]pyridin-2-yl)-2-fluorocyclopropane-1-carboxamide]
–	–	0.101 to 0.5	CO[C@H](C)[C@@H](OC)c1c(F)c(Cl)c(-c2ccn3nc(NC(=O)[C@@H]4C[C@@H]4F)cc3c2)c2cn[nH]c12 [Example 666, (1S,2S)-N-(5-(5-chloro-7-((1S,2R)-1,2-dimethoxypropyl)-6-fluoro-1H-indazol-4-yl)pyrazolo[1,5-a]pyridin-2-yl)-2-fluorocyclopropane-1-carboxamide]

Source: US11649255B2, “Indazoles as hematopoietic progenitor kinase 1 (HPK1) inhibitors and methods using same” (1st Biotherapeutics, Inc., priority 2020, dated 2023)
